This is an account of results in PubChem BioAssay AID2842 (Southern Research Institute, 2010).

≈ marks a conversion by molar mass, not a printed value.

Usually IC90 stands for the concentration needed for an effect of 90%.

This assay has as its system M. tuberculosis H37Rv growth inhibition. The experiment in a line: Mycobacterium tuberculosis H37Rv growth inhibition, putative kinase inhibitor library, confirmatory dose response (AID 2842).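 Further: bacteria incubated one week before Alamar blue readout.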

For `Cc1cc(C)cc(Nc2nc(Nc3ccc(F)cc3)nc(N3CCOCC3)n2)c1`, the concentration for an effect of 90% (IC90) was 11.1 µg/mL (≈ 28 µM).
On to `O=C(CCOc1ccccc1)Nc1nnc(-c2ccc3c(c2)CCCC3)o1`, for which the concentration for an effect of 90% (IC90) was 18.1 µg/mL (≈ 49.8 µM).
As for `O=C(CCCN1C(=O)/C(=C/c2ccco2)SC1=S)Nc1ccccc1`, the 90% effect concentration (IC90) is 2.96 µg/mL (≈ 7.95 µM).
The figure for `CCOc1ccc(NCCCn2c(C)cn3c4c(=O)[nH]c(=O)n(C)c4nc23)cc1` is 20.5 µg/mL (≈ 51.7 µM); for `CC(=O)CSc1nc2c([nH]c3ccccc32)c(=O)n1-c1cc(C)ccc1C` it is 22 µg/mL (≈ 58.2 µM).
Turning to `O=C(Nc1nnc(C2=COCCO2)o1)c1ccc(-c2ccccc2)cc1`, the IC90 was 8.24 µg/mL (≈ 23.6 µM).
On to `CCOc1ccc2nc(N(CCCn3ccnc3)C(=O)Cc3ccc(F)cc3)sc2c1`, for which the IC90 was 3.05 µg/mL (≈ 6.96 µM).
On to `N#C/C(=C(\O)c1ccc2c(c1)OCCO2)c1nc2ccccc2s1`, for which the IC90 is 37.7 µg/mL (≈ 112 µM).
Turning to `O=C(Nc1nnc(-c2ccccc2)o1)c1ccco1`, the concentration for an effect of 90% (IC90) is 2.78 µg/mL (≈ 10.9 µM).
Under `COc1ccc(C)c2sc(NNC(=O)c3nc4ccccc4s3)nc12` stands 38 µg/mL (≈ 103 µM).
Under `Cc1ccc(-c2nnc(NC(=O)c3ccccc3C)o2)c(C)c1` stands 2.52 µg/mL (≈ 8.2 µM); under `COC(=O)c1c(NC(=O)Cc2cccc3ccccc23)sc2c1CC(C)(C)NC2(C)C`, 3.73 µg/mL (≈ 8.54 µM); under `CC1(C)CC(=O)c2sc(NC(=O)c3ccc(NS(=O)(=O)c4ccc(Cl)cc4)cc3)nc2C1`, 15.5 µg/mL (≈ 31.7 µM).
As to `O=C(Nc1nnc(-c2ccco2)o1)c1cccs1`, the 90% effect concentration (IC90) was 3.12 µg/mL (≈ 11.9 µM).
The figure for `Cn1c(/C(C#N)=C/c2c[nH]c3ccccc23)nc2ccccc21` is 10.2 µg/mL (≈ 34.3 µM).
For `CC(C)C(=O)Nc1nnc(-c2ccc(Br)cc2)o1`, the concentration for an effect of 90% (IC90) was 1.24 µg/mL (≈ 4 µM).
As to `c1ccc(CSc2ncnc3nc[nH]c23)cc1`, the IC90 was 19.5 µg/mL (≈ 80.3 µM).
The figure for `O=C(NCCCSc1nc2ccccc2o1)Nc1ncccn1` is 25.1 µg/mL (≈ 76.1 µM); for `Cc1ccccc1C(=O)N1N=C(c2c(-c3ccccc3)c3cc(Br)ccc3[nH]c2=O)CC1c1ccccc1` (stereo unspecified) it is 1.68 µg/mL (≈ 2.99 µM).
As for `Cc1ccc(-c2nnc(NC(=O)c3ccc(Br)cc3)o2)c(C)c1`, the concentration for an effect of 90% (IC90) was 52.2 µg/mL (≈ 140 µM).
The figure for `CC(=O)c1cccc(Nc2nc(Nc3ccc(F)c(Cl)c3)nc(N3CCOCC3)n2)c1` is 8.38 µg/mL (≈ 18.9 µM).
Consider `O=C(Nc1nnc(-c2cc(Cl)ccc2Cl)o1)c1ccc(S(=O)(=O)N2CCOCC2)cc1`, for which the IC90 was 3.86 µg/mL (≈ 7.99 µM).
With `CCS(=O)(=O)c1cccc(C(=O)Nc2nc3ccc(C(C)C)cc3s2)c1`, the 90% effect concentration (IC90) is 11.3 µg/mL (≈ 29.1 µM).
The figure for `COc1cccc(NC(=O)C2C(=O)CN(c3ccccc3)C2=O)c1` (stereo unspecified) is 4.41 µg/mL (≈ 13.6 µM); for `O=C(Nc1nnc(-c2ccc3c(c2)CCCC3)o1)c1ccccc1` it is 7.25 µg/mL (≈ 22.7 µM); for `Cc1ccc(C)c(-c2nnc(NC(=O)Cc3cccc4ccccc34)o2)c1` it is 6.3 µg/mL (≈ 17.6 µM).
Regarding `O=C(CCc1ccccc1)Nc1nnc(-c2ccc(Cl)s2)o1`, the IC90 was 2.27 µg/mL (≈ 6.8 µM).
Consider `Cc1ccc(-n2nnc3c(SCC(=O)N4CCOCC4)ncnc32)cc1`, for which the IC90 was 12.3 µg/mL (≈ 33.3 µM).
Under `Cc1cc(NS(=O)(=O)c2ccc(NC(=O)CCCOc3ccc(Cl)cc3)cc2)no1` stands 19.1 µg/mL (≈ 42.5 µM); under `COc1cccc2sc(Nc3nc4c(s3)CCCC4)nc12`, 5.82 µg/mL (≈ 18.3 µM); under `O=C1CN(C(=O)c2cccc3ccccc23)C(c2ccccc2)c2cc(Br)ccc2N1` (stereo unspecified), 8.15 µg/mL (≈ 17.3 µM).
The figure for `COc1ccc2nc(NNC(=O)c3cc4ccccc4oc3=O)sc2c1` is 30.8 µg/mL (≈ 83.8 µM); for `O=c1[nH]c(N/N=C/c2cccs2)nnc1-c1ccccc1` it is 21.6 µg/mL (≈ 72.5 µM); for `c1ccc(CN2CCN(c3nc(Nc4ccccc4)c4nccnc4n3)CC2)cc1` it is 5.37 µg/mL (≈ 13.5 µM).
Under `Cc1ccc(C)c(N2CCN(C(=O)CCCCCn3c(=O)[nH]c4ccsc4c3=O)CC2)c1` stands 10.9 µg/mL (≈ 24 µM).
As for `CC1CCN(S(=O)(=O)c2ccc(C(=O)NNc3nc4c(Cl)cccc4s3)cc2)CC1`, the 90% effect concentration (IC90) was 24.7 µg/mL (≈ 53.1 µM).
Under `Cc1ccc(-c2nnc(NC(=O)C3=COCCO3)o2)c(C)c1` stands 7.35 µg/mL (≈ 24.4 µM); under `COc1ccc2nc(Nc3nc4c(s3)C(=O)CC(C)(C)C4)sc2c1`, 15.7 µg/mL (≈ 43.7 µM).
Take `O=C(Nc1nnc(-c2ccc3c(c2)CCCC3)o1)c1ccc([N+](=O)[O-])s1`: the 90% effect concentration (IC90) is 0.68 µg/mL (≈ 1.84 µM).
As for `COc1ccc2nc(Nc3ccc4nc(C)sc4c3)sc2c1`, the concentration for an effect of 90% (IC90) is 15.2 µg/mL (≈ 46.5 µM).
Under `COc1ccc(C(=O)N(CCCn2ccnc2)c2nc3c(C)c(C)ccc3s2)cc1OC` stands 14.2 µg/mL (≈ 31.5 µM); under `COc1cccc2sc(Nc3nnc(-c4cccs4)o3)nc12`, 3.36 µg/mL (≈ 10.2 µM); under `Fc1cccc2sc(Nc3nnc(-c4ccccc4Cl)o3)nc12`, 16.8 µg/mL (≈ 48.3 µM).
The figure for `COc1ccc(Nc2nc(Nc3ccc(C)c(C)c3)nc3nccnc23)cc1` is 3.93 µg/mL (≈ 10.6 µM); for `COc1cccc2sc(NNC(=O)c3cc(=O)c4ccccc4o3)nc12` it is 25.5 µg/mL (≈ 69.5 µM); for `O=C(CSc1nc(-c2cccc(F)c2)[nH]c1-c1ccccc1)Nc1ccc2c(c1)OCCO2` it is 7.87 µg/mL (≈ 17.1 µM).
`O=C(c1ccco1)N(CCCn1ccnc1)c1nc2ccc(F)cc2s1`: the IC90 is 1.94 µg/mL (≈ 5.24 µM).
In the case of `O=C(CSc1ncnc2c1nnn2Cc1ccc(F)cc1)N1CCOCC1`, the IC90 was 19.8 µg/mL (≈ 50.9 µM).
The figure for `CCOC(=O)N1CCc2c(sc(NC(=O)CCOc3ccccc3)c2C(N)=O)C1` is 12.4 µg/mL (≈ 29.7 µM); for `Cc1ccc(-c2nnc(NC(=O)c3nc4ccccc4s3)o2)c(C)c1` it is 1.76 µg/mL (≈ 5.02 µM).
The figure for `COc1cc(OC)cc(C(=O)Nc2nnc(-c3cccc(SC)c3)o2)c1` is 12.4 µg/mL (≈ 33.5 µM).
